# Test results reported in article PMC5218480 (PLoS ONE, 2017).
# System: MV-4-11 cells
# Assay: Gene expression microarray analysis (Affymetrix PrimeView) and GSEA
# Format: cell-based, human
# Set-up: RFU PODN (11730768_x_at) / Fold change /veh PODN (11730768_x_at) / RFU LINC00158 (11744669_a_at) / Fold change /veh LINC00158 (11744669_a_at) / RFU DUSP10 (11751237_a_at) / Fold change /veh DUSP10 (11751237_a_at) / RFU ID3 (11757404_x_at) / Fold change /veh ID3 (11757404_x_at) / RFU PLEKHG5 (11737974_s_at) / Fold change /veh PLEKHG5 (11737974_s_at) / RFU LRRC4B (11730491_at) / Fold change /veh LRRC4B (11730491_at) / RFU GIMAP4 (11747438_a_at) / Fold change /veh GIMAP4 (11747438_a_at) / RFU KRT8 (11758183_x_at) / Fold change /veh KRT8 (11758183_x_at) / RFU CNN1 (11734310_a_at) / Fold change /veh CNN1 (11734310_a_at) / RFU VPS37D (11726825_at) / Fold change /veh VPS37D (11726825_at) / RFU C10orf10 (11716522_x_at) / Fold change /veh C10orf10 (11716522_x_at) / RFU KIR2DL2 /// KIR2DL4 /// KIR2DL5A /// KIR2DL5B /// KIR2DS1 /// KIR2DS2 /// KIR2DS3 /// KIR2DS4 /// KIR3DL3 /// KIR3DL3 /// KIR3DS1 (11738374_at) / Fold change /veh KIR2DL2 /// KIR2DL4 /// KIR2DL5A /// KIR2DL5B /// KIR2DS1 /// KIR2DS2 /// KIR2DS3 /// KIR2DS4 /// KIR3DL3 /// KIR3DL3 /// KIR3DS1 (11738374_at) / RFU C1QL1 (11718748_at) / Fold change /veh C1QL1 (11718748_at) / RFU TMPRSS4 (11747572_a_at) / Fold change /veh TMPRSS4 (11747572_a_at) / RFU HAMP (11756126_x_at) / Fold change /veh HAMP (11756126_x_at) / RFU RNFT2 (11725882_a_at) / Fold change /veh RNFT2 (11725882_a_at) / RFU NR4A2 (11747474_a_at) / Fold change /veh NR4A2 (11747474_a_at) / RFU ABCC12 (11746883_a_at) / Fold change /veh ABCC12 (11746883_a_at) / RFU TMEM136 (11760407_x_at) / Fold change /veh TMEM136 (11760407_x_at) / RFU CLDN22 /// WWC2 (11732394_at) / Fold change /veh CLDN22 /// WWC2 (11732394_at) / RFU HLA-DPB1 (11760878_x_at) / Fold change /veh HLA-DPB1 (11760878_x_at) / RFU SPINT1 (11716480_a_at) / Fold change /veh SPINT1 (11716480_a_at) / RFU GAP43 (11754022_s_at) / Fold change /veh GAP43 (11754022_s_at) / RFU A4GNT (11735810_at) / Fold change /veh A4GNT (11735810_at) / RFU PRB3 (11715151_x_at) / Fold change /veh PRB3 (11715151_x_at) / RFU TUBB4B (11761932_at) / Fold change /veh TUBB4B (11761932_at) / RFU CAPN14 (11732068_a_at) / Fold change /veh CAPN14 (11732068_a_at) / RFU TMCC2 (11721928_a_at) / Fold change /veh TMCC2 (11721928_a_at) / RFU IRGQ (11745062_a_at) / Fold change /veh IRGQ (11745062_a_at) / RFU FAM174B (11720279_a_at) / Fold change /veh FAM174B (11720279_a_at) / RFU TMPRSS4 (11748680_a_at) / Fold change /veh TMPRSS4 (11748680_a_at) / RFU FAM212B (11763350_a_at) / Fold change /veh FAM212B (11763350_a_at) / RFU PLEKHG5 (11743358_a_at) / Fold change /veh PLEKHG5 (11743358_a_at) / RFU ZSCAN30 (11745921_a_at) / Fold change /veh ZSCAN30 (11745921_a_at) / RFU CMKLR1 (11741424_a_at) / Fold change /veh CMKLR1 (11741424_a_at) / RFU LOC101060620 /// MAPK8IP1 (11723275_at) / Fold change /veh LOC101060620 /// MAPK8IP1 (11723275_at) / RFU SPTSSB (11747773_x_at) / Fold change /veh SPTSSB (11747773_x_at) / RFU PRSS12 (11739890_at) / Fold change /veh PRSS12 (11739890_at) / RFU BIN1 (11741810_x_at) / Fold change /veh BIN1 (11741810_x_at) / RFU WNT11 (11732464_a_at) / Fold change /veh WNT11 (11732464_a_at) / RFU C10orf10 (11716521_a_at) / Fold change /veh C10orf10 (11716521_a_at) / RFU C5orf56 (11738089_at) / Fold change /veh C5orf56 (11738089_at) / RFU CYB561 (11721691_x_at) / Fold change /veh CYB561 (11721691_x_at) / RFU ANKRD19P (11752326_a_at) / Fold change /veh ANKRD19P (11752326_a_at) / RFU OR2T12 /// OR2T33 /// OR2T8 (11738714_s_at) / Fold change /veh OR2T12 /// OR2T33 /// OR2T8 (11738714_s_at) / RFU VCAN (11748164_a_at) / Fold change /veh VCAN (11748164_a_at) / RFU JSRP1 (11732532_at) / Fold change /veh JSRP1 (11732532_at) / RFU KRTAP10-11 (11738290_x_at) / Fold change /veh KRTAP10-11 (11738290_x_at) / RFU MYO3A (11730013_a_at) / Fold change /veh MYO3A (11730013_a_at) / RFU EBF3 (11725865_a_at) / Fold change /veh EBF3 (11725865_a_at) / RFU CAMK2N1 (11719241_x_at) / Fold change /veh CAMK2N1 (11719241_x_at) / RFU C5orf56 (11738088_a_at) / Fold change /veh C5orf56 (11738088_a_at) / RFU OLFML3 (11715873_a_at) / Fold change /veh OLFML3 (11715873_a_at) / RFU LOC100653217 /// NTM (11731650_a_at) / Fold change /veh LOC100653217 /// NTM (11731650_a_at) / RFU MAPK11 (11762145_a_at) / Fold change /veh MAPK11 (11762145_a_at) / RFU FIZ1 (11724087_x_at) / Fold change /veh FIZ1 (11724087_x_at) / RFU OASL (11726364_x_at) / Fold change /veh OASL (11726364_x_at) / RFU SOX15 (11748057_x_at) / Fold change /veh SOX15 (11748057_x_at) / RFU CD79A (11719716_a_at) / Fold change /veh CD79A (11719716_a_at) / RFU HIST1H1D (11736915_at) / Fold change /veh HIST1H1D (11736915_at) / RFU CASKIN2 (11723855_a_at) / Fold change /veh CASKIN2 (11723855_a_at) / RFU LOC730098 (11760151_x_at) / Fold change /veh LOC730098 (11760151_x_at) / RFU OR4N2 (11742367_at) / Fold change /veh OR4N2 (11742367_at) / RFU PRRT2 (11749266_a_at) / Fold change /veh PRRT2 (11749266_a_at) / RFU SNX32 (11753110_a_at) / Fold change /veh SNX32 (11753110_a_at) / RFU CDHR5 (11726645_a_at) / Fold change /veh CDHR5 (11726645_a_at) / RFU RCAN1 (11760418_a_at) / Fold change /veh RCAN1 (11760418_a_at) / RFU FAM167A (11723789_a_at) / Fold change /veh FAM167A (11723789_a_at) / RFU FAM26E (11764081_at) / Fold change /veh FAM26E (11764081_at) / RFU ISYNA1 (11749810_s_at) / Fold change /veh ISYNA1 (11749810_s_at) / RFU ACY1 (11761880_at) / Fold change /veh ACY1 (11761880_at) / RFU 11764098_at / Fold change /veh 11764098_at / RFU SAMD14 (11745864_x_at) / Fold change /veh SAMD14 (11745864_x_at) / RFU NPB (11741838_a_at) / Fold change /veh NPB (11741838_a_at) / RFU TMPRSS6 (11731388_a_at) / Fold change /veh TMPRSS6 (11731388_a_at) / RFU KRTAP10-2 (11738614_at) / Fold change /veh KRTAP10-2 (11738614_at) / RFU ARHGAP8 /// PRR5-ARHGAP8 (11727945_x_at) / Fold change /veh ARHGAP8 /// PRR5-ARHGAP8 (11727945_x_at) / RFU KRTAP5-7 /// NADSYN1 (11734609_at) / Fold change /veh KRTAP5-7 /// NADSYN1 (11734609_at) / RFU RASL12 (11751679_a_at) / Fold change /veh RASL12 (11751679_a_at) / RFU CDKN2B (11736163_a_at) / Fold change /veh CDKN2B (11736163_a_at) / RFU PRF1 (11729649_at) / Fold change /veh PRF1 (11729649_at) / RFU, ZNF638 /// ZNF638-IT1 / Fold change vs veh, ZNF638 /// ZNF638-IT1 / RFU, PANK3 / Fold change vs veh, PANK3 / RFU, SH3YL1 / Fold change vs veh, SH3YL1 / RFU, ZEB2 / Fold change vs veh, ZEB2 / RFU, NRIP1 / Fold change vs veh, NRIP1 / RFU, PTTG1IP / Fold change vs veh, PTTG1IP / RFU, CAPN2 / Fold change vs veh, CAPN2 / RFU, MED14 / Fold change vs veh, MED14 / RFU, SNORA58 / Fold change vs veh, SNORA58 / RFU, C1orf63 / Fold change vs veh, C1orf63 / RFU, LRRFIP1 / Fold change vs veh, LRRFIP1 / RFU, NDUFAF7 / Fold change vs veh, NDUFAF7 / RFU, SLC12A2 / Fold change vs veh, SLC12A2 / RFU, IBTK / Fold change vs veh, IBTK / RFU, ESF1 / Fold change vs veh, ESF1 / Fold change vs veh, TMEM50B / RFU, TAOK1 / Fold change vs veh, TAOK1 / RFU, ACBD3 / Fold change vs veh, ACBD3 / RFU, TMA16 / Fold change vs veh, TMA16 / RFU, RWDD3 / Fold change vs veh, RWDD3 / RFU, BCAT1 / Fold change vs veh, BCAT1 / RFU, EDEM3 / Fold change vs veh, EDEM3 / RFU, TMEM33 / Fold change vs veh, TMEM33 / RFU, WDR75 / Fold change vs veh, WDR75 / RFU, AHCTF1 / Fold change vs veh, AHCTF1 / RFU, TFRC / Fold change vs veh, TFRC / RFU, ZDHHC17 / Fold change vs veh, ZDHHC17 / RFU, NOM1 / Fold change vs veh, NOM1 / RFU, ARL8B / Fold change vs veh, ARL8B / RFU, ZBTB11 / Fold change vs veh, ZBTB11 / RFU, TAMM41 / Fold change vs veh, TAMM41 / RFU, KIAA1704 /// LOC100996395 / Fold change vs veh, KIAA1704 /// LOC100996395 / RFU, ING1 / Fold change vs veh, ING1 / RFU, TRMT61B / Fold change vs veh, TRMT61B / RFU, FUBP3 / Fold change vs veh, FUBP3 / RFU, TP53 / Fold change vs veh, TP53 / RFU, TNKS2 / Fold change vs veh, TNKS2 / RFU, ZFP14 / Fold change vs veh, ZFP14 / RFU, ACTR2 / Fold change vs veh, ACTR2 / RFU, PPP3R1 / Fold change vs veh, PPP3R1 / RFU, PIK3R1 / Fold change vs veh, PIK3R1 / RFU, HNRNPA1 / Fold change vs veh, HNRNPA1 / RFU, RNF170 / Fold change vs veh, RNF170 / RFU, ZNF28 / Fold change vs veh, ZNF28 / RFU, RNGTT / Fold change vs veh, RNGTT / RFU, OGT / Fold change vs veh, OGT / RFU, BRD1 / Fold change vs veh, BRD1 / RFU, MARS / Fold change vs veh, MARS / RFU, ZNF655 / Fold change vs veh, ZNF655 / RFU, FAHD1 / Fold change vs veh, FAHD1 / RFU, BDP1 / Fold change vs veh, BDP1 / RFU, LRRCC1 / Fold change vs veh, LRRCC1 / RFU, ARID1A / Fold change vs veh, ARID1A / RFU, ZNF146 / Fold change vs veh, ZNF146 / RFU, ZNF330 / Fold change vs veh, ZNF330 / RFU, GPN3 / Fold change vs veh, GPN3 / RFU, C9orf123 / Fold change vs veh, C9orf123 / RFU, N4BP2L2 / Fold change vs veh, N4BP2L2 / RFU, ARFIP1 / Fold change vs veh, ARFIP1 / RFU, FAM179B / Fold change vs veh, FAM179B / RFU, BCL10 / Fold change vs veh, BCL10 / RFU, UHRF1BP1L / Fold change vs veh, UHRF1BP1L / RFU, BET1 / Fold change vs veh, BET1 / RFU, CNOT2 / Fold change vs veh, CNOT2 / RFU, ZNF268 / Fold change vs veh, ZNF268 / Fold change vs veh, ZNF507 / RFU, DGCR2 / Fold change vs veh, DGCR2 / RFU, WDSUB1 / Fold change vs veh, WDSUB1 / Fold change vs veh, HSP90B1 /// MIR3652 / RFU, ADSS / Fold change vs veh, ADSS / RFU, GK / Fold change vs veh, GK / RFU, ZNF148 / Fold change vs veh, ZNF148 / RFU, TAF9 / Fold change vs veh, TAF9 / RFU, SLC1A5 / Fold change vs veh, SLC1A5 / RFU, SLMO2 / Fold change vs veh, SLMO2 / RFU, ABCC4 / Fold change vs veh, ABCC4 / RFU, LOC101060439 /// RAP1B / Fold change vs veh, LOC101060439 /// RAP1B / RFU, RFX7 / Fold change vs veh, RFX7 / RFU, GTPBP10 / Fold change vs veh, GTPBP10 / RFU, CNEP1R1 / Fold change vs veh, CNEP1R1 / RFU, BIVM-ERCC5 /// ERCC5 / Fold change vs veh, BIVM-ERCC5 /// ERCC5 / RFU, ILF3 / Fold change vs veh, ILF3 / RFU 11762660_at / Fold change /veh 11762660_at / RFU VCAN (11757783_s_at) / Fold change /veh VCAN (11757783_s_at) / RFU DDX43 (11728927_at) / Fold change /veh DDX43 (11728927_at) / RFU KRT8 (11758188_x_at) / Fold change /veh KRT8 (11758188_x_at) / RFU NKD1 (11759106_at) / Fold change /veh NKD1 (11759106_at) / RFU SRD5A1 (11742802_a_at) / Fold change /veh SRD5A1 (11742802_a_at) / RFU TPSAB1 /// TPSB2 (11721975_s_at) / Fold change /veh TPSAB1 /// TPSB2 (11721975_s_at) / RFU GSTM3 (11746129_a_at) / Fold change /veh GSTM3 (11746129_a_at) / RFU IL23R (11737362_x_at) / Fold change /veh IL23R (11737362_x_at) / RFU TMEM51 (11727254_a_at) / Fold change /veh TMEM51 (11727254_a_at) / RFU PIWIL2 (11732686_x_at) / Fold change /veh PIWIL2 (11732686_x_at) / RFU ORM1 (11744905_x_at) / Fold change /veh ORM1 (11744905_x_at) / RFU CCDC152 (11743942_at) / Fold change /veh CCDC152 (11743942_at) / RFU ECM1 (11717891_a_at) / Fold change /veh ECM1 (11717891_a_at) / RFU IL23R (11748794_a_at) / Fold change /veh IL23R (11748794_a_at) / RFU TNFAIP8L3 (11732012_x_at) / Fold change /veh TNFAIP8L3 (11732012_x_at) / RFU MBOAT4 (11741988_at) / Fold change /veh MBOAT4 (11741988_at) / RFU 11764193_at / Fold change /veh 11764193_at / RFU TMEM53 (11763286_at) / Fold change /veh TMEM53 (11763286_at) / RFU MAGEB2 (11727129_at) / Fold change /veh MAGEB2 (11727129_at) / RFU TMEM200A (11744735_a_at) / Fold change /veh TMEM200A (11744735_a_at) / RFU CCDC152 (11751479_a_at) / Fold change /veh CCDC152 (11751479_a_at) / RFU FAM211A (11726209_a_at) / Fold change /veh FAM211A (11726209_a_at) / RFU RGS16 (11746705_a_at) / Fold change /veh RGS16 (11746705_a_at) / RFU VCAN (11755009_s_at) / Fold change /veh VCAN (11755009_s_at) / RFU RHOB (11743442_s_at) / Fold change /veh RHOB (11743442_s_at) / RFU RGS16 (11720943_a_at) / Fold change /veh RGS16 (11720943_a_at) / RFU RGS16 (11720944_at) / Fold change /veh RGS16 (11720944_at) / RFU, VPS4B / Fold change vs veh, VPS4B / RFU, CREB1 / Fold change vs veh, CREB1 / RFU, DNAJC13 / Fold change vs veh, DNAJC13 / RFU, GNAQ / Fold change vs veh, GNAQ / RFU, CDK5R1 / Fold change vs veh, CDK5R1 / RFU, ZRANB3 / Fold change vs veh, ZRANB3 / RFU, CUL4A / Fold change vs veh, CUL4A / RFU, CCNY / Fold change vs veh, CCNY / RFU, UFL1 / Fold change vs veh, UFL1 / RFU, COG3 / Fold change vs veh, COG3 / RFU, DIAPH2 / Fold change vs veh, DIAPH2 / RFU, SKA2 / Fold change vs veh, SKA2 / RFU, AFF3 / Fold change vs veh, AFF3 / RFU, LMF1 / Fold change vs veh, LMF1 / RFU, IPO11 / Fold change vs veh, IPO11 / RFU, DFFB / Fold change vs veh, DFFB / RFU, FOXP1 / Fold change vs veh, FOXP1 / RFU, CARD8 / Fold change vs veh, CARD8 / RFU, STRN3 / Fold change vs veh, STRN3 / RFU, ADK / Fold change vs veh, ADK / RFU, RASSF2 / Fold change vs veh, RASSF2 / RFU, WIPF1 / Fold change vs veh, WIPF1 / RFU, LARP1B / Fold change vs veh, LARP1B / RFU, RASA1 / Fold change vs veh, RASA1 / RFU, RB1 / Fold change vs veh, RB1 / RFU, PPFIA1 / Fold change vs veh, PPFIA1 / RFU, MAT2A / Fold change vs veh, MAT2A / RFU, CCT5 / Fold change vs veh, CCT5 / RFU, WDR92 / Fold change vs veh, WDR92 / RFU, CUX1 / Fold change vs veh, CUX1 / RFU, TTC7A / Fold change vs veh, TTC7A / RFU, TMEM135 / Fold change vs veh, TMEM135 / RFU, DEPTOR / Fold change vs veh, DEPTOR / RFU, CPM / Fold change vs veh, CPM / RFU, DNAJB6 / Fold change vs veh, DNAJB6 / RFU, CACNA2D3 / Fold change vs veh, CACNA2D3 / RFU, DTX4 / Fold change vs veh, DTX4 / RFU, TFCP2 / Fold change vs veh, TFCP2 / RFU, GMCL1 /// GMCL1P1 / Fold change vs veh, GMCL1 /// GMCL1P1 / RFU, AEBP2 / Fold change vs veh, AEBP2 / RFU, SNHG1 /// SNORD22 /// SNORD25 /// SNORD26 /// SNORD27 /// SNORD28 /// SNORD29 /// SNORD31 / Fold change vs veh, SNHG1 /// SNORD22 /// SNORD25 /// SNORD26 /// SNORD27 /// SNORD28 /// SNORD29 /// SNORD31 / Fold change (Aza/veh), C12orf56 (ProbeSet 11735607_a_at) / Fold change (ACY-1035/veh), C12orf56 (ProbeSet 11735607_a_at) / Fold change (Aza/veh), FGFR1OP (ProbeSet 11751329_s_at) / Fold change (ACY-1035/veh), FGFR1OP (ProbeSet 11751329_s_at) / Fold change (Aza/veh), VPS36 (ProbeSet 11739960_a_at) / Fold change (ACY-1035/veh), VPS36 (ProbeSet 11739960_a_at) / RFU SYPL1 (11715823_x_at) / Fold change /veh SYPL1 (11715823_x_at) / RFU IGFBP7 (11715501_s_at) / Fold change /veh IGFBP7 (11715501_s_at) / RFU REEP3 (11722064_at) / Fold change /veh REEP3 (11722064_at) / RFU IGLL1 (11728026_x_at) / Fold change /veh IGLL1 (11728026_x_at): dose or concentration left out as unconfirmed
# Details: MV-4-11 cells, 48 hours
smiles,measurement,value
Nc1ccc(-c2cccs2)cc1NC(=O)c1ccc2c(c1)cc(C1CC1)n2CCN1CCOCC1 [ACY-1035],RFU LOC101060620 /// MAPK8IP1 (11723275_at),10.15 RFU
